Test results as given in publication PMC7881117 (Nature Communications, 2021).

Biological target: T1, p53 (Homo sapiens, UniProt P04637)
T1 construct: gene TP53
Test: SPR with immobilized p53; also STD NMR, […]-13C NCO NMR titration, SAXS and AUC with NTD
Type: binding

T1 sequence (P04637 whole entry): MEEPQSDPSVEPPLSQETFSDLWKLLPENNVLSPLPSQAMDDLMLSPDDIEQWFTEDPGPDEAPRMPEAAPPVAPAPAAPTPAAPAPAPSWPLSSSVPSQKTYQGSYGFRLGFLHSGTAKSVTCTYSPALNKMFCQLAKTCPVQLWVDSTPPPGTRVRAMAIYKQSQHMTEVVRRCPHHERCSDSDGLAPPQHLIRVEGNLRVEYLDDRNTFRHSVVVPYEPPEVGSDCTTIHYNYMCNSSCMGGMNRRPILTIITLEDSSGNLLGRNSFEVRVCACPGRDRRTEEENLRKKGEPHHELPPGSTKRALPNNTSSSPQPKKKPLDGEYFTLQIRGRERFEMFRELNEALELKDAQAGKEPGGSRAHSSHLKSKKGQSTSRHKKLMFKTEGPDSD

O=C(O[C@@H]1Cc2c(O)cc(O)cc2O[C@@H]1c1cc(O)c(O)c(O)c1)c1cc(O)c(O)c(O)c1 [EGCG, Epigallocatechin gallate]
Kd: 1600 ± 1400 nM
